Laboratory results: ChEMBL document CHEMBL1138757, “Synthesis and photosensitizing efficacy of isomerically pure bacteriopurpurinimides” (2004)

Experiments:
Mus musculus [1] = species on record: Mus musculus; assay: In vitro Efficacy to destroy the RIF tumor cells by MTT assay when incubated for 3 hr at drug concentration of 1.5 uM and exposed to laser light (780nm,16J/cm2); format: functional
Mus musculus [2] = assay: In vivo photosensitizing efficacy when evaluated in mice assessed on day 90; format: functional

For `CCCCCCCO[C@@H](C)C1=C(C)c2cc3[nH]c(c4c5[nH]c(cc6nc(cc1n2)[C@H](C)[C@H]6CC)c(C)c5C(=O)N(CCCCCC)C4=O)[C@@H](CCC(=O)OCCC)[C@@H]3C`, the Efficacy (Mus musculus [1]) was 100% and the Efficacy (Mus musculus [2]) was 2 No. of mice tumor free.

`CCCCCCCO[C@H](C)C1=C(C)c2cc3[nH]c(c4c5[nH]c(cc6nc(cc1n2)[C@H](C)[C@H]6CC)c(C)c5C(=O)N(CCCCCC)C4=O)[C@@H](CCC(=O)OCCC)[C@@H]3C` was tested, and the Efficacy (Mus musculus [1]) was 100% and the Efficacy (Mus musculus [2]) was 6 No. of mice tumor free.
